Measured values published in patent US9855320B2, “Angiogenin for treatment of glaucoma” (CHUNG-ANG UNIVERSITY INDUSTRY-ACADEMIC COOPERATION …, priority 2011, dated 2018).

Columns and labels:
[1] = test system: nitric oxide (NO) concentration in aqueous humor; experiment: NO concentration in aqueous humor after instillation (Griess assay); format: in vivo, rat; settings: 50 μg/ml, rank among instillation groups
Description: Normal rat models were divided into 4 groups, each group consisting of 6 rats, that is, 12 eyes, and at 8 AM and 8 PM, each group was instilled with angiogenin 50 μg/ml, angiogenin fragment 50 μg/ml, and latanoprost 50 μg/ml, and 1, 3, and 6 hours after instillation, 15 to 20 μl of aqueous humor was extracted from two rats, that is, 4 eyes for each group. For the extraction of aqueous humor, first, rats were anesthetized, and then, corneal dissection was performed in a direction from at 9 o'clock outside each eye toward microkeratome, and then, a capillary tube was brought into contact through a dissection wound to absorb aqueous humor, which was then moved to an eppendroff tube and frozen-preserved at a temperature of −70 degrees. Thereafter, nitric oxide (NO) concentration in aqueous humor was measured by Griess assay (nitric oxide colorimetric assay kit, Biovision, USA). The aqueous humor was diluted 10 times and then mixed with the same amount of griess solution and reacted together for 10 minutes. The reaction product was moved onto a well plate and then, absorbance of nitrate, which is a NO formation reactant, was measured by using spectrophotometer at a wavelength of 540 nm and compared with a reference value to quantify the nitrate.

[2] = test system: angiogenin; experiment: Angiogenin concentration change in human tear after Latanoprost instillation (ELISA array); format: in vivo
Description: Angiogenin concentration change in tears due to long-, short-term instillation of […] Latanoprost (Xalatan; Pfizer Inc., New York, N.Y., USA) was assayed by using ELISA kit (Custom Cytokine Human Antibody Array, RayBiotech). Short-term tear component change assay was performed as follows: 12 people, that is, 24 eyes were instilled with […] Latanoprost and then, angiogenin concentration in tear was qualitatively assayed before instillation and 6 hours after instillation. Long-term tear component change assay was performed as follows: 10 people, that is, 20 eyes, who were newly diagnosed with glaucoma were instilled with […] Latanoprost instillation for two months once a day, and then, angiogenin concentration in tear was analyzed before and after instillation. […] After washing, the result was reacted in a detection buffer solution provided by the manufacturer for 2 minutes, and then, the membrane was exposed to an X-ray film for 40 seconds, and an image thereof was obtained by using Quantity one software(Bio-Rad Lab., Hercules, Calif., USA), and chemiluminescent assay was performed thereon for qualitativeness.

[3] = test system: normal white rat; experiment: Intraocular pressure change due to instillation in normal white rats (day-time and night-time); format: in vivo
Description: (§1) White rats were grouped as a physiological saline solution instillation group, an angiogenin (recombinant human angiogenin, R&D systems, USA) 50 μg/ml instillation group, an angiogenin fragment (angiogenin 108-122, SEQ ID NO: 1, BACHEM, USA) instillation group, and a latanoprost 50 μg/ml instillation group, and each group consisted of 6 rats, that is, 12 eyes. Instillation test was repeatedly performed on normal rats and glaucoma model rats. Ophthalmic agent was administered at 8 AM and 8 PM in an amount of 4 μl to compare day-time effects and night-time effects, and 1, 3, 6, 9, 12, and 24 hours after the instillation, intraocular pressure was measured.

[4] = test system: glaucoma white rats; experiment: Intraocular pressure change due to instillation in glaucoma white rats (day-time and night-time); format: in vivo, rat; settings: day-time test and night-time test
Description: Male white rats were used to prepare an episcleral venous ablation glaucoma model. The rat was anesthetized and a limbus periphery was divided into four portions, each of which was then subjected to 2 mm dissection at an interval of 90 degrees, and then, two radial conjunctival excisions were performed on upper dissection periphery. […] Episcleral vein is distinguishable because it is located […] than extra ocular muscle, has relatively low fluidity and a relatively large diameter, contains darker blood in vessel, and is connected to peripheral venous plexus. After surgical isolation of vein, the vein was lifted up by using 3 mm-width wooden spatula to be spaced apart from the peripheral tissue, and then, was subjected to electric ablation while being careful for the peripheral tissue not to have any thermal injury or any mechanical injury due to the contact. After the operation, a chloramphenical ophthalmic agent was administered thereto. Intraocular pressure was consecutively measured three or more times by using Tonopen (Solan, Fla., USA), and only reliable intraocular pressure values within 5% or less were recorded. Only used were rats that had higher intraocular pressure than that before the operation by 5 mmHg or more when measured on the first day, the third day, one week and two weeks before and after operation.
Also, steroid-induced glaucoma model was prepared as follows: 1% prednisolone was instilled twice a day in an amount of 4 μl for 30 days, and only rats that had higher intraocular pressure by 5 mmHg or more before operation were used.
as §1

CC(C)OC(=O)CCC/C=C\C[C@@H]1[C@@H](CC[C@@H](O)CCc2ccccc2)[C@H](O)C[C@@H]1O [latanoprost, reference compound]
NO concentration increase in aqueous humor ([1]; 3 hours after instillation): greatest NO concentration increase | expression of angiogenin in tear ([2]; human, short-term, 6 hours after instillation of 0.0005% Latanoprost, before instillation 42.2±9.1%): 62.5±10.2% | long-term angiogenin concentration in tear ([2]; newly diagnosed glaucoma patients, after two months of instillation once a day, 0.0005% Latanoprost, before instillation 60.5±10.8%): 81.2±11.5% | time after instillation up to which significant intraocular pressure reduction was maintained ([3]; day-time instillation): up to 12 hours | intraocular pressure reduction ([3]; day-time instillation, 50 μg/ml, 3 hours after the instillation): −2.8±0.4 mmHg

angiogenin fragment: C-terminal fragment of angiogenin, angiogenin 108-122, SEQ ID NO: 1 (BACHEM) (ENGLPVHLDQSIFRR; listed as Homo sapiens)
course of intraocular pressure reduction effects after the first hour (in words) ([4]; later than one hour after instillation): rapidly diminished at the highest speed from among all of the groups | intraocular pressure reduction effects (in words) ([4]; one hour after instillation): excellent intraocular pressure reduction effects | NO concentration increase in aqueous humor ([1]; 1 hour after the initial instillation, day-time and night-time test): ranked the second | time after instillation up to which significant intraocular pressure reduction was maintained ([3]; day-time instillation): up to 6 hours | average intraocular pressure reduction ([3]; day-time instillation, one hour after instillation): −2.9±0.4 mmHg | time after instillation up to which significant intraocular pressure reduction was maintained ([3]; night-time instillation): up to 12 hours | intraocular pressure reduction ([3]; night-time instillation, 1 hour after the instillation): −3.4±0.6 mmHg
